Assay results published in patent publication US9061076B2, “Viral nanoparticle cell-targeted delivery platform” (North Carolina State University, priority 2007, dated 2015).

B1: PVN-CAR-F: native RCNMV conjugated via SMCC with fluorescein-labeled CAR targeting peptide (conjugate)
chain: LSITTPEEMIEKAKGETAYLPCKFTLSPEDQGPLDIEWLISPADNQKVDQVIILYSGDKIYDDYYPDLKGRVHFTSNDLKSGDASINVTNLQLSDIGTYQCKVKKAPGVANKKIHLVVLVKPSGARCYVDGSEEIGSDFKIKCEPKEGSLPLQYEWQKLSDSQKMPTSWLAEMTSSVISVKNASSEYSGTYSCTVRNRVGSDQCLLRLNVVPPSNKAGLIAGAIIGTLLALALIGLIIFCCRKKRREEKYEKEVHHDIREDVPPPKSRTSTARSYIGSNHSSLGSMSPSNMEGYSKTQYNQVPSEDFERTPQSPTLPPAKVAAPNLSRMGAIPVMIPAQSKDGSIV

Key:
[1] = test system: HeLa cells; assay: MTT cell viability assay; format: cell-based; settings: 7 uM DOX, 24 hours
Description: The effect of DOX-PVN-CD46 on cell viability was measured using an MTT assay (FIG. 10A). HeLa cells were exposed to a free DOX, DOX-PVN, and DOX-PVN-CD46 for 24 hours at DOX concentrations ranging from 0.01 uM to 12 uM prior assaying. […] On the other hand, the percentage of viable cell was approximately 70-80% when the same concentration of free DOX (7 uM) was delivered to the cells. […] The PVN has two desirable properties as a drug delivery platform. First, it sequesters drugs effectively in blood and other biofluids. Second, it delivers drugs inside cells triggered by divalent ion concentration and with a timed release that increases the efficacy of drugs that rely on interactions with DNA. FACS was used to determine the dose-response of DOX-PVN-CD46-F after a 2-hour exposure (FIG. 10B). Cell detachment is an early sign of apoptosis. One method to determining cell survival is to count the number of adherent cells. At a PVN concentration of 1 pM, the number of adherent cells is reduced by approximately 25% (FIG. 10B). The FACS experiments in the lower panel of FIG. 10B counts only the adherent cells. Thus, the reduction in viable (adherent) cells accounts for the low levels of PVN internalization measured by fluorescence intensity. The number of adherent cells decreases to 50% at a DOX-PVN-CD46-F concentration of 100 μM (data not shown).

[2] = test system: HeLa cells; assay: PVN internalization by FACS / fluorescent microscopy; format: cell-based
Description: Flow cytometry measurements were carried out with the Becton Dickinson FACSCalibur® running Cellquest Pro. Flow cytometry is sometimes referred to as “FACS” herein. The positive population of cells is determined by gating the right-hand tail of the distribution of the negative control sample for each individual cell line at 1%. This setting can then used to determine the percentage of positive cells for each of the above markers for each individual cell line.
We have observed that PVNs with targeting peptides attached to the surface can be internalized into mammalian cells. […] Surface coverage can be determined in a fluorometer using a fluorescein standard curve to quantify the number of fluorophores in the sample and the UV-vis spectrum to quantify the concentration of RCNMV. Based on the measured fluorescence, we determined that the surface of the PVN was labeled with approximately 60 CD46-F peptides. The endocytosis of these formulations was detected using fluorescent microscopy and FACS. FACS quantifies PVN cellular uptake and cargo release in a two-channel fluorescence measurement on populations of hundreds of thousands of cells. […]

Molecule | percentage of viable cells [1] | internalization in HeLa versus HepG2 cell lines [2]
COc1cccc2c1C(=O)c1c(O)c3c(c(O)c1C2=O)C[C@@](O)(C(=O)CO)C[C@@H]3O[C@H]1C[C@H](N)[C@H](O)[C@H](C)O1 [DOX, doxorubicin] | 70-80% | 
B1 |  | nearly the same level of internalization
